# In patent US8952024B2, “Herbicidal pyrimidone derivatives” (E I du Pont de Nemours and Company, priority 2009, dated 2015):
# Tests used:
# Format in all cases: in vivo
# [1] = test system: windgrass (Apera spica-venti); assay: Test B postemergence plant response; settings: Postemergence, scale 0 (no effect) to 100 (complete control)
# In short: (§1)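 Plants at the 1- to 4-leaf stage (2 to 18 cm tall), grown in pots of peat moss/vermiculite medium with wetting agent and starter nutrients, received postemergence applications of test chemicals. After 13 to 15 days in a greenhouse, injury was rated visually against untreated controls on a 0 (no effect) to 100 (complete control) scale.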
# [2] = test system: canarygrass (Phalaris minor); assay: Test B postemergence plant response; settings: Postemergence
# In short: as §1
# [3] = test system: chickweed (Stellaria media); assay: Test B postemergence plant response; settings: Postemergence
# In short: as §1
# [4] = test system: morningglory (Ipomoea coccinea); assay: Test B pre-/postemergence plant response
# In short: (§2)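 Plants treated either at seeding (loam/sand soil) or postemergence at 2 to 18 cm height, using a surfactant-containing non-phytotoxic solvent formulation. Evaluation was visual after 13 to 15 days, 0 to 100 scale relative to controls.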
# [5] = test system: velvetleaf (Abutilon theophrasti); assay: Test B pre-/postemergence plant response
# In short: as §2
# wild oat (Avena fatua) = assay: Test B pre-/postemergence plant response
# In short: as §2
# [6] = test system: green foxtail (Setaria viridis); assay: Test B pre-/postemergence plant response
# In short: as §2
# [7] = test system: wheat (Triticum aestivum); assay: Test B pre-/postemergence plant response
# In short: as §2
# [8] = test system: johnsongrass (Sorghum halepense); assay: Test B pre-/postemergence plant response
# In short: as §2
# soybean (Glycine max) = assay: Test B pre-/postemergence plant response
# In short: as §2
# [9] = test system: yellow nutsedge (Cyperus esculentus); assay: Test B pre-/postemergence plant response
# In short: as §2
# [10] = test system: downy bromegrass (Bromus tectorum); assay: Test B pre-/postemergence plant response
# In short: as §2
# [11] = test system: bermudagrass (Cynodon dactylon); assay: Test B pre-/postemergence plant response
# In short: as §2
# [12] = test system: cocklebur (Xanthium strumarium); assay: Test B pre-/postemergence plant response
# In short: as §2
# [13] = test system: blackgrass (Alopecurus myosuroides); assay: Test B pre-/postemergence plant response
# In short: as §2
# kochia (Kochia scoparia) = assay: Test B pre-/postemergence plant response; settings: Postemergence; for Plant response rating, Kochia: scale 0 (no effect) to 100 (complete control)
# In short: as §2
# [14] = test system: ragweed (common ragweed, Ambrosia elatior); assay: Test B pre-/postemergence plant response
# In short: as §2
# [15] = test system: giant foxtail (Setaria faberii); assay: Test B pre-/postemergence plant response
# In short: as §2
# [16] = 125 g ai/ha, visual rating after 13 to 15 days
# [17] = 31 g ai/ha, scale 0 to 100 (0 no effect, 100 complete control)
# [18] = 62 g ai/ha, scale 0 (no effect) to 100 (complete control), 13 to 15 days
# [19] = 125 g ai/ha, visual rating after 13 to 15 days, scale 0 (no effect) to 100 (complete control)
# [20] = 250 g ai/ha, Preemergence, 0 to 100 scale
# [21] = Postemergence, 62 g ai/ha, scale 0 (no effect) to 100 (complete control), 13 to 15 days
# [22] = Postemergence, 125 g ai/ha, visual rating after 13 to 15 days, scale 0 (no effect) to 100 (complete control)
# [23] = Preemergence, 31 g ai/ha, scale 0 to 100 (0 no effect, 100 complete control)
# [24] = Preemergence, 62 g ai/ha, scale 0 to 100, 0 no effect, 100 complete control
# [25] = Preemergence, 125 g ai/ha, 0 to 100 scale
# [26] = Postemergence, 31 g ai/ha, scale 0 to 100 (0 no effect, 100 complete control)
# [27] = Postemergence, 250 g ai/ha, scale 0 to 100
smiles,measurement,setting,value
Cc1ccc(-n2c(-c3cccc(Cl)c3)ncc(C(=O)C3=C(O)CCCC3=O)c2=O)cc1 [Compound 39],"Plant response rating, Windgrass","[1]; 62 g ai/ha, 13 to 15 days",0
same,"Plant response rating, Windgrass",[1]; [16],5
same,"Plant response rating, Canarygrass",[2]; [17],0
same,"Plant response rating, Canarygrass",[2]; [18],0
same,"Plant response rating, Canarygrass",[2]; [19],0
same,Canarygrass plant response rating,"[2]; 250 g ai/ha, scale 0 to 100",20
same,"Plant response rating, Chickweed",[3]; [17],98
same,"Plant response rating, Chickweed",[3]; [18],100
same,"Plant response rating, Chickweed",[3]; [19],100
same,Chickweed plant response rating,"[3]; 250 g ai/ha, scale 0 to 100",100
same,"Plant response rating, Morningglory",[4]; [20],100
same,"Plant response rating, Morningglory",[4]; [21],75
same,"Plant response rating, Morningglory",[4]; [22],75
same,"Plant response rating, Morningglory",[4]; [23],0
same,"Plant response rating, Morningglory",[4]; [24],0
same,Morningglory plant response rating,[4]; [25],15
same,"Plant response rating, Velvetleaf",[5]; [20],98
same,"Plant response rating, Velvetleaf",[5]; [21],80
same,"Plant response rating, Velvetleaf",[5]; [22],80
same,"Plant response rating, Velvetleaf",[5]; [23],15
same,Velvetleaf plant response rating,[5]; [25],75
same,"Plant response rating, Oat, Wild",wild oat (Avena fatua); [20],0
same,"Plant response rating, Oat, Wild",wild oat (Avena fatua); [21],20
same,"Plant response rating, Oat, Wild",wild oat (Avena fatua); [22],30
same,"Plant response rating, Oat, Wild",wild oat (Avena fatua); [23],0
same,"Oat, Wild plant response rating",wild oat (Avena fatua); [25],0
same,"Plant response rating, Foxtail, Green",[6]; [20],100
same,"Plant response rating, Foxtail, Green",[6]; [26],80
same,"Plant response rating, Foxtail, Green",[6]; [21],80
same,"Plant response rating, Foxtail, Green",[6]; [22],90
same,"Foxtail, Green plant response rating",[6]; [27],90
same,"Foxtail, Green plant response rating",[6]; [25],75
same,"Plant response rating, Wheat",[7]; [20],0
same,"Plant response rating, Wheat",[7]; [21],5
same,"Plant response rating, Wheat",[7]; [22],5
same,"Plant response rating, Wheat",[7]; [23],0
same,Wheat plant response rating,[7]; [25],0
same,"Plant response rating, Johnsongrass",[8]; [20],75
same,"Plant response rating, Johnsongrass",[8]; [21],65
same,"Plant response rating, Johnsongrass",[8]; [22],90
same,Johnsongrass plant response rating,[8]; [27],98
same,"Plant response rating, Johnsongrass",[8]; [23],0
same,"Plant response rating, Johnsongrass",[8]; [24],60
same,Johnsongrass plant response rating,[8]; [25],65
same,"Plant response rating, Soybean",soybean (Glycine max); [20],0
same,"Plant response rating, Soybean",soybean (Glycine max); [21],95
same,"Plant response rating, Soybean",soybean (Glycine max); [22],98
same,"Plant response rating, Soybean",soybean (Glycine max); [23],0
same,Soybean plant response rating,soybean (Glycine max); [25],0
same,"Plant response rating, Nutsedge, Yellow",[9]; [20],10
same,"Plant response rating, Nutsedge, Yellow",[9]; [21],0
same,"Plant response rating, Nutsedge, Yellow",[9]; [22],15
same,"Plant response rating, Nutsedge, Yellow",[9]; [23],0
same,"Nutsedge, Yellow plant response rating",[9]; [25],0
same,"Plant response rating, Bromegrass, Downy",[10]; [20],0
same,"Plant response rating, Bromegrass, Downy",[10]; [26],0
same,"Plant response rating, Bromegrass, Downy",[10]; [21],0
same,"Plant response rating, Bromegrass, Downy",[10]; [22],0
same,"Bromegrass, Downy plant response rating",[10]; [27],0
same,"Plant response rating, Bromegrass, Downy",[10]; [23],0
same,"Plant response rating, Bromegrass, Downy",[10]; [24],0
same,"Bromegrass, Downy plant response rating",[10]; [25],0
same,"Plant response rating, Bermudagrass",[11]; [20],100
same,"Plant response rating, Bermudagrass",[11]; [26],50
same,"Plant response rating, Bermudagrass",[11]; [21],60
same,"Plant response rating, Bermudagrass",[11]; [22],85
same,Bermudagrass plant response rating,[11]; [27],100
same,"Plant response rating, Bermudagrass",[11]; [23],85
same,"Plant response rating, Bermudagrass",[11]; [24],100
same,Bermudagrass plant response rating,[11]; [25],100
same,"Plant response rating, Cocklebur",[12]; [20],45
same,"Plant response rating, Cocklebur",[12]; [26],75
same,"Plant response rating, Cocklebur",[12]; [21],75
same,"Plant response rating, Cocklebur",[12]; [22],95
same,Cocklebur plant response rating,[12]; [27],98
same,"Plant response rating, Cocklebur",[12]; [23],0
same,"Plant response rating, Blackgrass",[13]; [20],0
same,"Plant response rating, Blackgrass",[13]; [26],0
same,"Plant response rating, Blackgrass",[13]; [21],0
same,"Plant response rating, Blackgrass",[13]; [22],0
same,Blackgrass plant response rating,[13]; [27],20
same,"Plant response rating, Blackgrass",[13]; [23],0
same,"Plant response rating, Blackgrass",[13]; [24],0
same,Blackgrass plant response rating,[13]; [25],0
same,"Plant response rating, Kochia","kochia (Kochia scoparia); 62 g ai/ha, 13 to 15 days",45
same,"Plant response rating, Kochia",kochia (Kochia scoparia); [16],60
same,Kochia plant response rating,"kochia (Kochia scoparia); 250 g ai/ha, scale 0 to 100",95
same,"Plant response rating, Ragweed",[14]; [20],95
same,"Plant response rating, Ragweed",[14]; [21],85
same,"Plant response rating, Ragweed",[14]; [22],95
same,"Plant response rating, Ragweed",[14]; [23],0
same,Ragweed plant response rating,[14]; [25],75
same,"Plant response rating, Foxtail, Giant",[15]; [20],75
same,"Plant response rating, Foxtail, Giant",[15]; [26],75
same,"Plant response rating, Foxtail, Giant",[15]; [21],85
same,"Plant response rating, Foxtail, Giant",[15]; [22],95
same,"Foxtail, Giant plant response rating",[15]; [27],95
same,"Plant response rating, Foxtail, Giant",[15]; [23],0
same,"Plant response rating, Foxtail, Giant",[15]; [24],45
same,"Foxtail, Giant plant response rating",[15]; [25],70
